# Assay results published in patent US4933456A, “Dipyridoxyl phosphate NMRI contrast agents” (Salutar, Inc., priority 1987, dated 1990).
# Legend:
# [1] = Potentiometric titration of the ligand DPDP; assay type: physicochemical; details: pH of 3 and above
# Description: The compound DPDP was studied potentiometrically from pH 11.2 to 2.0. Data sets were collected on a custom-built automatic potentiometric titration apparatus composed of a METROHM 655 DOSIMAT automatic buret, a FISHER ACCUMET pH meter with a CORNING calomel combination electrode, a custom-blown water jacketed titration cell, a BRINKMAN LAUDA K-2/R constant temperature bath and a COMMODORE 64 computer. […] Data analysis was performed on an IBM-AT computer using the least squares program, BETA (Harris, W. et al, supra), and the data analysis program, HANDNBAR (Harris, W. et al, supra). The titrants were standardized by phenophthalein titration as follows: KOH was calibrated against potassium hydrogen phthalate (a primary standard), and HCl solutions were calibrated against the KOH standard. […] All solutions were made from distilled, deionized water that was further purified on a MILLI-Q cartridge system, degassed, and then kept under an atmosphere of argon which had been scrubbed for CO2 and O2. Additions of EDTA and Mn(II) solutions were performed using calibrated GILMOT pipets.
# [2] = cited from earlier work
compound,measurement,setting,value
"Cc1ncc(COP(=O)(O)O)c(CN(CCN(CC(=O)O)Cc2c(COP(=O)(O)O)cnc(C)c2O)CC(=O)O)c1O [DPDP, N,N'-bis-(pyridoxal-5-phosphate)ethylenediamine-N,N'-diacetic acid or N,N'-bis(3-hydroxy-2-methyl-5-phosphonomethyl-4-pyridylmethyl)ethylenediamine-N,N'-diacetic acid]",ionization state of the ligand,[1],anionic and possesses deprotonated metal binding sites
"O=C(O)C(NCCNC(C(=O)O)c1ccccc1O)c1ccccc1O (centres unmarked) [EHPG, N,N'-ethylenebis-2-(o-hydroxyphenyl)glycine]",stability of the Fe(III) chelate,[2]; Anderegg et al,high stability
same,oxidation of manganese(II) in EHPG complexes,"[2]; above pH 5, also under inert atmospheres, Frost et al",irreversibly oxidized
"O=C(O)CN(CCN(CC(=O)O)Cc1ccccc1O)Cc1ccccc1O [HBED, N,N'-bis(2-hydroxybenzyl)ethylenediamine-N,N'-diacetic acid]",log Kf (formation constant),"[2]; manganese chelate, reported by L'Eplathenier et al",14.8
same,oxidation of manganese(II) by the phenolic ligand during titration,"[2]; titrations of L'Eplathenier et al, judged from Patch et al",oxidized by the phenolic ligand
